Test results: publication PMC10001950 (International Journal of Molecular Sciences, 2023)

Tests used:
[1] = target: T1, BoNT/A LC (Clostridium botulinum, UniProt P0DPI0); experiment: biochemical
[2] = target: T1, BoNT/A LC; experiment: biochemical; format: biochemical

T1 sequence (P0DPI0 2-448 limits assumed): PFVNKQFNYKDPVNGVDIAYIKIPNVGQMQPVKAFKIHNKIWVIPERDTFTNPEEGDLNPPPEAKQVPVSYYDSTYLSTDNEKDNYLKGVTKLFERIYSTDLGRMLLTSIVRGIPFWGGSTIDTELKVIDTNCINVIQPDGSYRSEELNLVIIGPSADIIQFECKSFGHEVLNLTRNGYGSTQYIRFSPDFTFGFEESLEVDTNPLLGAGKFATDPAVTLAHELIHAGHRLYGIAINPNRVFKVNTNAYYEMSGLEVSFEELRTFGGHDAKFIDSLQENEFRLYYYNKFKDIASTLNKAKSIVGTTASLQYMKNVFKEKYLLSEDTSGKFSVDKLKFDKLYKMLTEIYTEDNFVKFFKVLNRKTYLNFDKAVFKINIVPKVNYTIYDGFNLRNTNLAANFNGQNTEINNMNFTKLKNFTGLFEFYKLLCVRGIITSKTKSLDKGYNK

| Molecule | IC50 [2] [nM] | further results |
| --- | --- | --- |
| CS(=O)(=O)SCCCCCCCc1ccn2c(=O)cc(CNCc3ccc(-c4ccccc4)cc3)nc2c1O [Compound 84] |  | Ki [1]: 32000 ± 6000 nM; kinact [1]: 0.0038 ± 0.0008 s⁻¹; kinact/KI [1]: 120 ± 30 M⁻¹ s⁻¹ |
| O=c1cc(COCc2ccc(Cl)cc2)nc2c(O)cccn12 [Compound 36, 2-(((4-Chlorobenzyl)oxy)methyl)-9-hydroxy-4H-pyrido [1,2-a]pyrimidin-4-one] | 4130 ± 90 |  |
| O=c1cc(CN2Cc3ccccc3C2)nc2c(O)cccn12 [Compound 42, 9-Hydroxy-2-(isoindolin-2-ylmethyl)-4H-pyrido [1,2-a]pyrimidin-4-one] | 1200 ± 100 | potency compared to 2 (in words) [2]: equipotent |
| Cc1ccc(CNCc2cc(=O)n3cccc(O)c3n2)cc1 [Compound 23, 9-Hydroxy-2-(((4-methylbenzyl)amino)methyl)-4H-pyrido [1,2-a]pyrimidin-4-one] | 1400 ± 900 |  |
| CN(C)Cc1cc(=O)n2cccc(O)c2n1 [Compound 15, 2-((Dimethylamino)methyl)-9-hydroxy-4H-pyrido [1,2-a]pyrimidin-4-one] | > 64000 |  |
| O=c1cc(CN2CCc3cc(Br)ccc32)nc2c(O)cccn12 [Compound 48, 2-((5-Bromoindolin-1-yl)methyl)-9-hydroxy-4H-pyrido [1,2-a]pyrimidin-4-one] | 700 ± 100 |  |
| 2-(((4-Chlorobenzyl)amino)methyl)-4H-pyrido [1,2-a]pyrimidin-4-one [Compound 10] |  | inhibitory activity against BoNT/A LC (in words) [2]: complete ablation of inhibitory activity |
| Cc1cccc2c1N(Cc1cc(=O)n3cccc(O)c3n1)CC2 [Compound 50, 9-Hydroxy-2-((7-methylindolin-1-yl)methyl)-4H-pyrido [1,2-a]pyrimidin-4-one] | 24000 ± 14000 |  |
| O=c1cc(COCc2ccccc2Cl)nc2c(O)cccn12 [Compound 34, 2-(((2-Chlorobenzyl)oxy)methyl)-9-hydroxy-4H-pyrido [1,2-a]pyrimidin-4-one] | 9000 ± 2000 |  |
| Cc1cccc(CNCc2cc(=O)n3cccc(O)c3n2)c1 [Compound 22, 9-Hydroxy-2-(((3-methylbenzyl)amino)methyl)-4H-pyrido [1,2-a]pyrimidin-4-one] | 500 ± 100 |  |
| O=c1cc(CN2Cc3ccc(Cl)cc3C2)nc2c(O)cccn12 [Compound 43, 2-((5-Chloroisoindolin-2-yl)methyl)-9-hydroxy-4H-pyrido [1,2-a]pyrimidin-4-one] | 500 ± 200 |  |
| COc1cc(COCc2cc(=O)n3cccc(O)c3n2)cc(OC)c1 [Compound 41, 2-(((3,5-Dimethoxybenzyl)oxy)methyl)-9-hydroxy-4H-pyrido [1,2-a]pyrimidin-4-one] | 5200 ± 200 |  |
| COc1cccc(CNCc2cc(=O)n3cccc(O)c3n2)c1 [Compound 20, 9-Hydroxy-2-(((3-methoxybenzyl)amino)methyl)-4H-pyrido [1,2-a]pyrimidin-4-one] | 490 ± 90 |  |
| CC(O)c1cc2n(n1)CCN(Cc1cc(=O)n3cccc(O)c3n1)C2 (stereo not shown) [Compound 4] | 7000 ± 1000 |  |
| O=c1cc(COCc2cccc([N+](=O)[O-])c2)nc2c(O)cccn12 [Compound 40, 9-Hydroxy-2-(((3-nitrobenzyl)oxy)methyl)-4H-pyrido [1,2-a]pyrimidin-4-one] | 9700 ± 800 |  |
| COc1ccc2c(c1)N(Cc1cc(=O)n3cccc(O)c3n1)CC2 [Compound 51, 9-Hydroxy-2-((6-methoxyindolin-1-yl)methyl)-4H-pyrido [1,2-a]pyrimidin-4-one] | > 64000 |  |
| Cc1ccc(COCc2cc(=O)n3cccc(O)c3n2)cc1 [Compound 39, 9-Hydroxy-2-(((4-methylbenzyl)oxy)methyl)-4H-pyrido [1,2-a]pyrimidin-4-one] | 9100 ± 500 |  |
| O=c1cc(CCCc2ccccc2)nc2c(O)cccn12 [Compound 7, 9-Hydroxy-2-(3-phenylpropyl)-4H-pyrido [1,2-a]pyrimidin-4-one] |  | inhibitory activity against BoNT/A LC (in words) [2]: drastic decrease in inhibitory activity |
| CS(=O)(=O)SCCCCCCc1ccn2c(=O)cc(CNCc3ccc(-c4ccccc4)cc3)nc2c1O [Compound 83, S-(6-(2-((([1,1′-biphenyl]-4-ylmethyl)amino)methyl)-9-hydroxy-4-oxo-4H-pyrido [1,2-a]pyrimidin-8-yl)hexyl) methanesulfonothioate] |  | Ki [1]: 3400 ± 500 nM; kinact [1]: 0.0028 ± 0.0002 s⁻¹; kinact/KI [1]: 820 ± 30 M⁻¹ s⁻¹ |
| O=c1cc(COCc2ccccc2)nc2c(O)cccn12 [Compound 30, 2-((Benzyloxy)methyl)-9-hydroxy-4H-pyrido [1,2-a]pyrimidin-4-one] | 2500 ± 300 |  |
| O=c1cc(CN2CCc3ccc(-c4ccccc4)cc32)nc2c(O)cccn12 [Compound 56, 9-Hydroxy-2-((6-phenylindolin-1-yl)methyl)-4H-pyrido [1,2-a]pyrimidin-4-one] | 600 ± 100 |  |
| O=c1cc(CNCc2ccc(Cl)cc2)nc2c(O)cccn12 [Compound 19, 2-(((4-Chlorobenzyl)amino)methyl)-9-hydroxy-4H-pyrido [1,2-a]pyrimidin-4-one] | 1100 ± 100 |  |
| O=c1cc(CNCc2cccc(-c3ccccc3)c2)nc2c(O)cccn12 [Compound 26, 2-((([1,1′-biphenyl]-3-ylmethyl)amino)methyl)-9-hydroxy-4H-pyrido [1,2-a]pyrimidin-4-one] | 600 ± 100 |  |

| Molecule | IC50 [2] [nM] | further results |
| --- | --- | --- |
| O=c1cc(COCc2ccc(F)cc2)nc2c(O)cccn12 [Compound 33, 2-(((4-Fluorobenzyl)oxy)methyl)-9-hydroxy-4H-pyrido [1,2-a]pyrimidin-4-one] | 15000 ± 1000 |  |
| O=c1cc(CNCc2cccc(F)c2)nc2c(O)cccn12 [Compound 16, 2-(((3-Fluorobenzyl)amino)methyl)-9-hydroxy-4H-pyrido [1,2-a]pyrimidin-4-one] | 600 ± 100 |  |
| COc1ccc(CNCc2cc(=O)n3cccc(O)c3n2)cc1 [Compound 21, 9-Hydroxy-2-(((4-methoxybenzyl)amino)methyl)-4H-pyrido [1,2-a]pyrimidin-4-one] | 1900 ± 200 |  |
| Oc1cccc2ccc(CNCc3ccccc3)nc12 [Compound 14, 2-((Benzylamino)methyl)quinolin-8-ol] |  | decrease in inhibition [2]: 15 fold |
| O=c1cc(CN2CCc3cc(-c4ccccc4)ccc32)nc2c(O)cccn12 [Compound 55, 9-Hydroxy-2-((5-phenylindolin-1-yl)methyl)-4H-pyrido [1,2-a]pyrimidin-4-one] | 900 ± 300 |  |
| O=c1cc(CN2CCc3ccc(Br)cc32)nc2c(O)cccn12 [Compound 49, 2-((6-Bromoindolin-1-yl)methyl)-9-hydroxy-4H-pyrido [1,2-a]pyrimidin-4-one] | 700 ± 50 |  |
| O=c1cc(CN2CCc3ccccc32)nc2c(O)cccn12 [Compound 46, 9-Hydroxy-2-(indolin-1-ylmethyl)-4H-pyrido [1,2-a]pyrimidin-4-one] | 2900 ± 100 |  |
| CCc1cc(=O)n2cccc(O)c2n1 [Compound 6, 2-Ethyl-9-hydroxy-4H-pyrido [1,2-a]pyrimidin-4-one] |  | inhibitory activity against BoNT/A LC (in words) [2]: a decrease in inhibitory potency |
| COC(=O)c1cccc(CNCc2cc(=O)n3cccc(O)c3n2)c1 [Compound 24, Methyl 3-((((9-hydroxy-4-oxo-4H-pyrido [1,2-a]pyrimidin-2-yl)methyl)amino)methyl) benzoate] | 410 ± 80 |  |
| NCc1cc(=O)n2cccc(O)c2n1 [Compound 13, 2-(Aminomethyl)-9-hydroxy-4H-pyrido [1,2-a]pyrimidin-4-one] |  | inhibitory activity against BoNT/A LC (in words) [2]: a decrease in inhibitory potency |
| O=c1cc(CNCc2ccc(F)cc2)nc2c(O)cccn12 [Compound 17, 2-(((4-Fluorobenzyl)amino)methyl)-9-hydroxy-4H-pyrido [1,2-a]pyrimidin-4-one] | 1200 ± 200 |  |
| O=c1cc(CN2Cc3ccc(-c4ccccc4)cc3C2)nc2c(O)cccn12 [Compound 45, 9-Hydroxy-2-((5-phenylisoindolin-2-yl)methyl)-4H-pyrido [1,2-a]pyrimidin-4-one] | 700 ± 100 |  |
| CCOc1cccn2c(=O)cc(CNCc3ccccc3)nc12 [Compound 11, 2-((Benzylamino)methyl)-9-ethoxy-4H-pyrido [1,2-a]pyrimidin-4-one] |  | inhibitory activity against BoNT/A LC (in words) [2]: had a similar effect |
| O=c1cc(COCc2ccccc2F)nc2c(O)cccn12 [Compound 31, 2-(((2-Fluorobenzyl)oxy)methyl)-9-hydroxy-4H-pyrido [1,2-a]pyrimidin-4-one] | 18000 ± 2000 |  |
| COC(=O)c1ccc2c(c1)CCN2Cc1cc(=O)n2cccc(O)c2n1 [Compound 52, Methyl1-((9-hydroxy-4-oxo-4H-pyrido [1,2-a]pyrimidin-2-yl)methyl)indoline-5-carboxylate] | 1200 ± 700 |  |
| Cc1cccc(COCc2cc(=O)n3cccc(O)c3n2)c1 [Compound 38, 9-Hydroxy-2-(((3-methylbenzyl)oxy)methyl)-4H-pyrido [1,2-a]pyrimidin-4-one] | 6600 ± 500 |  |
| O=c1cc(COCc2cccc(O)c2)nc2c(O)cccn12 [Compound 37, 9-Hydroxy-2-(((3-hydroxybenzyl)oxy)methyl)-4H-pyrido [1,2-a]pyrimidin-4-one] | 26000 ± 2000 |  |
| CN(Cc1ccc(-c2ccccc2)cc1)Cc1cc(=O)n2cccc(O)c2n1 [Compound 28, 2-((([1,1′-biphenyl]-4-ylmethyl)(methyl)amino)methyl)-9-hydroxy-4H-pyrido [1,2-a]pyrimidin-4-one] | 12000 ± 200 |  |
| COC(=O)c1ccc(CNCc2cc(=O)n3cccc(O)c3n2)cc1 [Compound 25, Methyl 4-((((9-hydroxy-4-oxo-4H-pyrido [1,2-a]pyrimidin-2-yl)methyl)amino)methyl) benzoate] | > 64000 |  |
| O=C(O)[C@@H]1CN(Cc2cc(=O)n3cccc(O)c3n2)C[C@H]1c1ccccn1 [Compound 3] | 1300 ± 200 | fold more potent than initial lead 1 [2]: approximately seven-fold |
| O=c1cc(CN2Cc3ccc(Br)cc3C2)nc2c(O)cccn12 [Compound 44, 2-((5-Bromoisoindolin-2-yl)methyl)-9-hydroxy-4H-pyrido [1,2-a]pyrimidin-4-one] | 400 ± 20 |  |
| COC(=O)c1ccc2c(c1)N(Cc1cc(=O)n3cccc(O)c3n1)CC2 [Compound 53, Methyl-1-((9-hydroxy-4-oxo-4H-pyrido [1,2-a]pyrimidin-2-yl)methyl)indoline-6-carboxylate] | 1100 ± 100 |  |
| O=c1cc(CNCCc2ccccc2)nc2c(O)cccn12 [Compound 29, 9-Hydroxy-2-((phenethylamino)methyl)-4H-pyrido [1,2-a]pyrimidin-4-one] | 10000 ± 1000 |  |
